Organism: Rattus norvegicus
Assay: Open TG-GATES - Regimen: Single
Type: toxicity, organism-based, Sprague-Dawley
Design: regimen Single, gender Male, age 6 weeks
Conditions: in vivo, po, 100 mg/kg, route gavage, dose level Low; for APTT / Bas / Eos / Fbg / Hb / Ht / Lym / MCH / MCHC / MCV / Mono / Neu / PT / Plat / RBC / Ret / WBC: tissue Blood; for KIDNEY_L / KIDNEY_R / KIDNEY_TOTAL: tissue Kidney; for LIVER: tissue Liver; for A/G / ALP / ALT / AST / BUN / CRE / Ca / Cl / DBIL / GLC / IP / K / LDH / Na / PL / RALB / TBIL / TC / TG / TP / gamma-GTP: tissue Plasma

CCCCNC(=O)NS(=O)(=O)c1ccc(C)cc1 [TOLBUTAMIDE]
TERMINAL_BW (3 h): 205.3 g | APTT (3 h): 21 s | Bas (3 h): 0% | Eos (3 h): 1% | Fbg (3 h): 274.2 mg/dL | Hb (3 h): 13.4 g/dL | Ht (3 h): 41.4% | Lym (3 h): 73% | MCH (3 h): 20.9 pg | MCHC (3 h): 32.3% | MCV (3 h): 64.7 fL | Mono (3 h): 3.4% | Neu (3 h): 21.8% | PT (3 h): 13.2 s | Plat (3 h): 122.1 x10_4/uL | RBC (3 h): 641 x10_4/ul | Ret (3 h): 8.8% | WBC (3 h): 90.7 x10_2/uL | KIDNEY_L (3 h): 1 g | KIDNEY_R (3 h): 1 g | KIDNEY_TOTAL (3 h): 2 g | LIVER (3 h): 9.2 g | A/G (3 h): 0.9 | ALP (3 h): 1360.8 IU/L | ALT (3 h): 49 IU/L | AST (3 h): 92 IU/L | BUN (3 h): 10.8 mg/dL | CRE (3 h): 0.2 mg/dL | Ca (3 h): 10.8 mg/dL | Cl (3 h): 106.2 meq/L | DBIL (3 h): 0.004 mg/dL | GLC (3 h): 156.2 mg/dL | IP (3 h): 8.5 mg/dL | K (3 h): 4 meq/L | LDH (3 h): 63.6 IU/L | Na (3 h): 141.4 meq/L | PL (3 h): 129 mg/dL | RALB (3 h): 2.5 g/dL | TBIL (3 h): 0.058 mg/dL | TC (3 h): 73.4 mg/dL | TG (3 h): 48 mg/dL | TP (3 h): 5.3 g/dL | gamma-GTP (3 h): 1.2 IU/L | TERMINAL_BW (6 h): 204.4 g | APTT (6 h): 16.5 s | Bas (6 h): 0% | Eos (6 h): 1% | Fbg (6 h): 278.2 mg/dL | Hb (6 h): 13.5 g/dL | Ht (6 h): 41.6% | Lym (6 h): 75% | MCH (6 h): 20.9 pg | MCHC (6 h): 32.3% | MCV (6 h): 64.8 fL | Mono (6 h): 2.2% | Neu (6 h): 20.4% | PT (6 h): 13.2 s | Plat (6 h): 124.3 x10_4/uL | RBC (6 h): 642.6 x10_4/ul | Ret (6 h): 9.1% | WBC (6 h): 98.3 x10_2/uL | KIDNEY_L (6 h): 0.9 g | KIDNEY_R (6 h): 0.9 g | KIDNEY_TOTAL (6 h): 1.8 g | LIVER (6 h): 8.8 g | A/G (6 h): 0.9 | ALP (6 h): 1403.8 IU/L | ALT (6 h): 40.4 IU/L | AST (6 h): 71.8 IU/L | BUN (6 h): 10.4 mg/dL | CRE (6 h): 0.2 mg/dL | Ca (6 h): 10.9 mg/dL | Cl (6 h): 106.8 meq/L | DBIL (6 h): 0.006 mg/dL | GLC (6 h): 137.4 mg/dL | IP (6 h): 9.8 mg/dL | K (6 h): 3.9 meq/L | LDH (6 h): 50.2 IU/L | Na (6 h): 141.8 meq/L | PL (6 h): 134 mg/dL | RALB (6 h): 2.5 g/dL | TBIL (6 h): 0.06 mg/dL | TC (6 h): 72.4 mg/dL | TG (6 h): 64.2 mg/dL | TP (6 h): 5.2 g/dL | gamma-GTP (6 h): 1.2 IU/L | TERMINAL_BW (9 h): 201.2 g | APTT (9 h): 16.5 s | Bas (9 h): 0% | Eos (9 h): 1.2% | Fbg (9 h): 288.4 mg/dL | Hb (9 h): 13.6 g/dL | Ht (9 h): 41.6% | Lym (9 h): 72.6% | MCH (9 h): 20.9 pg | MCHC (9 h): 32.7% | MCV (9 h): 63.9 fL | Mono (9 h): 1.6% | Neu (9 h): 24% | PT (9 h): 13.5 s | Plat (9 h): 122.2 x10_4/uL | RBC (9 h): 650.4 x10_4/ul | Ret (9 h): 8.3% | WBC (9 h): 89.4 x10_2/uL | KIDNEY_L (9 h): 0.9 g | KIDNEY_R (9 h): 0.9 g | KIDNEY_TOTAL (9 h): 1.8 g | LIVER (9 h): 7.9 g | A/G (9 h): 0.9 | ALP (9 h): 1515.4 IU/L | ALT (9 h): 39.2 IU/L | AST (9 h): 80.4 IU/L | BUN (9 h): 10 mg/dL | CRE (9 h): 0.2 mg/dL | Ca (9 h): 10.7 mg/dL | Cl (9 h): 107.4 meq/L | DBIL (9 h): 0.002 mg/dL | GLC (9 h): 158.2 mg/dL | IP (9 h): 9.7 mg/dL | K (9 h): 4.1 meq/L | LDH (9 h): 66.6 IU/L | Na (9 h): 142.4 meq/L | PL (9 h): 122.8 mg/dL | RALB (9 h): 2.5 g/dL | TBIL (9 h): 0.064 mg/dL | TC (9 h): 69.4 mg/dL | TG (9 h): 34.6 mg/dL | TP (9 h): 5.2 g/dL | gamma-GTP (9 h): 1 IU/L | TERMINAL_BW (24 h): 220.2 g | APTT (24 h): 17.7 s | Bas (24 h): 0.2% | Eos (24 h): 1% | Fbg (24 h): 273.6 mg/dL | Hb (24 h): 13.3 g/dL | Ht (24 h): 41% | Lym (24 h): 80.4% | MCH (24 h): 20.8 pg | MCHC (24 h): 32.5% | MCV (24 h): 64.1 fL | Mono (24 h): 2.4% | Neu (24 h): 15.4% | PT (24 h): 12.9 s | Plat (24 h): 129 x10_4/uL | RBC (24 h): 640.4 x10_4/ul | Ret (24 h): 7.7% | WBC (24 h): 82.4 x10_2/uL | KIDNEY_L (24 h): 1 g | KIDNEY_R (24 h): 1 g | KIDNEY_TOTAL (24 h): 2 g | LIVER (24 h): 10.2 g | A/G (24 h): 0.9 | ALP (24 h): 1457.6 IU/L | ALT (24 h): 46.4 IU/L | AST (24 h): 73 IU/L | BUN (24 h): 14.6 mg/dL | CRE (24 h): 0.2 mg/dL | Ca (24 h): 11.2 mg/dL | Cl (24 h): 104.4 meq/L | DBIL (24 h): 0.008 mg/dL | GLC (24 h): 174.6 mg/dL | IP (24 h): 8.7 mg/dL | K (24 h): 4.2 meq/L | LDH (24 h): 69 IU/L | Na (24 h): 142 meq/L | PL (24 h): 148.2 mg/dL | RALB (24 h): 2.5 g/dL | TBIL (24 h): 0.066 mg/dL | TC (24 h): 80.6 mg/dL | TG (24 h): 70.8 mg/dL | TP (24 h): 5.3 g/dL | gamma-GTP (24 h): 1.2 IU/L
